“Also recorded” adds a separate entry of the source. Marks after values point to notes of the source that are not given here.
Assays:
[1] = tested on: Hbb^th3/+ mice (β-thalassemia model); experiment: hematological parameters and red cell indices in β-thalassemic and wild-type mice; format: in vivo, mouse; set-up: CH (hemoglobin concentration): unit not given here; conditions: TAT-ICD 5 mg/kg i.p. once every other day for 3 weeks
Experimental: (§1) Wild-type C57BL/6J mice and the mouse model for β-thalassemia (designated as Hbb^th3/+) were used for these studies. Flow cytometric analysis and sorting of mouse bone marrow and spleen precursors were performed using standard protocols using markers for CD44 and TER119 and cell size (forward scatter) to distinguish erythroid precursors at each distinct developmental stage. Forward scatter high-CD44+Ter119+ cells represents total erythroblasts (or erythroid mass in bone marrow or spleen). These erythroblasts can be further analyzed and sorted in subpopulations: population I: pro-erythroblasts; population II: basophilic erythroblasts; population III: polychromatic erythroblasts; population IV: orthochromatic erythroblasts, as described in Matte et al 2015, Antioxid. Redox Signal. 2015 23(16):1284-1297. Population II, III and IV corresponding to basophilic erythroblasts, polychromatic erythroblasts and orthochromatic erythroblasts were sorted from bone marrow as previously described (Matte et al 2015 Antioxid. Redox Signal. 2015 23(16):1284-1297).
(§2) Wild-type and Hbb^3th/+ were treated with TAT-ICD at 5 mg/kg i.p once every other day for 3 weeks. […] Hematological parameters, red blood cell indices and reticulocyte counts were determined using standard procedures. Table 37 summarizes the effect of treatment of WT and HBB mice with TAT-ICD9 on key hematological parameters and red cell indices.

[2] = body weight as a measure of toxicity; format: in vivo, mouse; conditions: Wild-type and Hbb^3th/+ mice; 5 mg/kg i.p once every other day for 3 weeks
Experimental: as §2

[3] = tested on: Hbb^th3/+ mice (β-thalassemia model); experiment: reactive oxygen species (ROS) levels, CM-H2DCFDA; format: in vivo, mouse; conditions: for mean ROS level in red cells: TAT-ICD 5 mg/kg i.p once every other day for 3 weeks
Experimental: Reactive oxygen species (ROS) are known to be increased in red blood cells in β-thalassemia and are thought to be important in the pathophysiology of the disease, leading to cumulative cell damage. The reactive oxygen species (ROS) levels from erythroid precursor populations was assessed using the General Oxidative Stress Indicator CM-H2DCFDA (Life Technologies, Carlsbad, Calif.) as described (Matte A. et al 2015 Antioxid. Redox Signal 23(16):1284-1297). […] Data are the mean ROS level.

human neutrophils = experiment: fMLP-triggered adhesion of neutrophils (PMNs) to ICAM-1; format: cell-based; conditions: for adhesion of human neutrophils to ICAM-1 (adherent cells), Resting (no stimulation): mean ± SD
Experimental: We investigated the functional effect of PTPRG activation on integrin activation and mediated adhesion by chemoattractants in human primary monocytes and PMNs in a static and flow adhesion assays. Briefly, human primary monocytes or polymorphonuclear cells were suspended at 5×10^6/ml in standard adhesion buffer. Adhesion assays were performed on 18-well glass slides coated with 1 mg/ml human fibrinogen or with 1 μg/ml human ICAM-1 in PBS; 20 μl of cell suspension were added to the coated wells and stimulated for 1 min at 37° C. with 5 μl of fMLP, 0.05 μM final concentration. After rapid washing, adherent cells were fixed in ice-cold 1.5% glutaraldehyde in PBS, and still images of adherent cells in 0.2 mm^2 fields were acquired al 20× phase contrast magnification, NA 0.40, with a charge-coupled device camera (ICD-42B; Ikegami) connected to an inverted microscope (IX50; Olympus). Image acquisition and computer-assisted enumeration of adherent cells were performed with ImageJ (National Institute of Health).
Chemokine-triggered adhesion of human neutrophils was measured similarly. Freshly isolated, non-activated human neutrophils incubated with buffer or increasing concentrations of TAT-ICD and then spotted onto ICAM-1-coated slides. Integrin-mediated adhesion was triggered using 50 nM fMLP and the adherent cells were fixed and enumerated as described for the lymphocytes above.

[4] = tested on: Hbb^th3/+ mice (β-thalassemia model); experiment: extramedullary erythropoiesis in spleen; format: in vivo, mouse; conditions: treated mice, 3 weeks
Experimental: as §1

TAT-ICD: fusion recombinant protein SEQ ID 5: PTPRG intracellular domain aa 797-1445 fused to 13 aa TAT sequence
CH (hemoglobin concentration) ([1]; Hbb3th/+ mice, n = 4): 10.4 ± 0.3
CHr (reticulocyte hemoglobin concentration) ([1]; Hbb3th/+ mice, n = 4): 12.0 ± 0.39 pg
Hb (hemoglobin) ([1]; Hbb3th/+ mice, n = 4): 10.1 ± 0.3 g/dL
Hct (hematocrit) ([1]; Hbb3th/+ mice, n = 4): 34.8 ± 4.9 %
MCH (mean corpuscular hemoglobin) ([1]; Hbb3th/+ mice, n = 4): 10.2 ± 0.4 pg
MCV (mean corpuscular volume) ([1]; Hbb3th/+ mice, n = 4): 393 ± 0.9 fL
MCVr (mean corpuscular volume reticulocytes) ([1]; Hbb3th/+ mice, n = 4): 49.2 ± 1.2 fL
Neutrophil ([1]; Hbb3th/+ mice, n = 4): 1407 ± 597 cells/uL
RDW (red cell distribution width) ([1]; Hbb3th/+ mice, n = 4): 25.7 ± 1.0 %
Retics (reticulocytes) ([1]; Hbb3th/+ mice, n = 4): 18.2 ± 2.0 %
WBC ([1]; Hbb3th/+ mice, n = 4): 9125 ± 1021 cells/uL
CH (hemoglobin concentration) ([1]; WT mice, n = 3): 13.6 ± 0.2
CHr (reticulocyte hemoglobin concentration) ([1]; WT mice, n = 3): 14.0 ± 0.1 pg
Hb (hemoglobin) ([1]; WT mice, n = 3): 14.9 ± 0.4 g/dL
Hct (hematocrit) ([1]; WT mice, n = 3): 46.3 ± 0.5%
MCH (mean corpuscular hemoglobin) ([1]; WT mice, n = 3): 15.0 ± 0.7 pg
MCV (mean corpuscular volume) ([1]; WT mice, n = 3): 50.1 ± 0.1 fL
MCVr (mean corpuscular volume reticulocytes) ([1]; WT mice, n = 3): 55.0 ± 0.3 fL
Neutrophil ([1]; WT mice, n = 3): 1833 ± 461 cells/uL
RDW (red cell distribution width) ([1]; WT mice, n = 3): 13.6 ± 0.3 %
Retics (reticulocytes) ([1]; WT mice, n = 3): 4.3 ± 0.5 %
WBC ([1]; WT mice, n = 3): 6005 ± 980 cells/uL
body weight as a measure of toxicity [2]: no changes were observed
ROS levels in bone marrow erythroid precursor populations I-IV ([3]; Hbb mice, all four populations): decreased
mean ROS level in red cells ([3]; Hbb^th3/+ mice, Untreated 13.75): 9.73*
mean ROS level in red cells ([3]; Wild-type mice, Untreated 3.32): 2.79
adhesion of human neutrophils to ICAM-1 (adherent cells), Resting (no stimulation) (human neutrophils; TAT-ICD 0.5 micromolar): 12 ± 5
adhesion of human neutrophils to ICAM-1 (adherent cells), Resting (no stimulation) (human neutrophils; TAT-ICD 1.0 micromolar): 12 ± 5
extramedullar erythropoiesis in spleen [4]: trend to reduction

P1-WD: fusion Trojan peptide SEQ ID 3: Penetratin, glycine, PTPRG wedge domain aa 831-856; RQIKIWFQNRRMKWKKGKQFVKHIGELYSNNQHGFSEDFEEVQ (listed as Homo sapiens)
chemoattractant-induced adhesion / integrin activation of PMNs (human neutrophils; human PMNs): completely unaffected; also recorded: not able to block

Source: patent US10898548B2, “Modulators of protein tyrosine phosphatase and uses thereof” (LEUVAS THERAPEUTICS, priority 2015, dated 2021)
